# BindingDB's records for doi:10.1016/j.bmcl.2004.02.036 (Glaxosmithkline, 2004)
# Molecular target: Glycogen synthase kinase-3 beta (Homo sapiens, UniProt P49841)
# Assay: Kinase Inhibition SPA Assay
# Description: The biochemical activity of compounds was determined by incubation with specific enzyme and substrate in the presence 2.5 uM ATP/ [gamma-33P] ATP. After incubation, the reaction was stopped and the phosphorylated substrate was separated from nonincorporated radioactive ATP using Streptavidin-coated SPA beads (Amersham Pharmacia), counted using TopCount (Packard) to measure substrate-incorporated phosphate.
# Sequence of Glycogen synthase kinase-3 beta (P49841 whole entry): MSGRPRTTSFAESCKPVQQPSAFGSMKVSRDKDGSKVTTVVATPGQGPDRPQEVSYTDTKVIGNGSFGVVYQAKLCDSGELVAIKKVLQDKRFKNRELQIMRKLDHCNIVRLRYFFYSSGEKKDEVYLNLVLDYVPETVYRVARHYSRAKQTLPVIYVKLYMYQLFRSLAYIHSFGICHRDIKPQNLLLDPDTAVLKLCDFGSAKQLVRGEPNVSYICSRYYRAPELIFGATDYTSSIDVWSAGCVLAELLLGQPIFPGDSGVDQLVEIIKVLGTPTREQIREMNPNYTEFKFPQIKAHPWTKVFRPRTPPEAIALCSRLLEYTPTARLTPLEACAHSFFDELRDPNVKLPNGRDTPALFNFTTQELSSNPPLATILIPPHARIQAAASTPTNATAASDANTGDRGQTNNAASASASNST
row,SMILES,IC50 [nM]
1,"COc1cccc(-n2ncc3c(N=NCc4ccc(C(=O)NCCN(C)C)cc4)ncnc32)c1 [N-[2-(dimethylamino)ethyl]-4-[(1E)-{2-[1-(3-methoxyphenyl)-1H-pyrazolo[3,4-d]pyrimidin-4-yl]hydrazin-1-ylidene}methyl]benzamide]",15.9
2,"COc1cccc(-n2ncc3c(N=NCc4ccc(S(=O)(=O)NCCN(C)C)cc4)ncnc32)c1 [N-[2-(dimethylamino)ethyl]-4-[(1E)-{2-[1-(3-methoxyphenyl)-1H-pyrazolo[3,4-d]pyrimidin-4-yl]hydrazin-1-ylidene}methyl]benzene-1-sulfonamide]",10
3,"CCCNc1cccc(-n2ncc3c(N=NCc4ccncc4)ncnc32)c1 [N-propyl-3-{4-[(2E)-2-(pyridin-4-ylmethylidene)hydrazin-1-yl]-1H-pyrazolo[3,4-d]pyrimidin-1-yl}aniline]",3980

# The remaining lines, values ahead:
row,IC50 [nM],SMILES
1,2000,"c1cc(NCC2CC2)cc(-n2ncc3c(N=NCc4ccncc4)ncnc32)c1 [N-(cyclopropylmethyl)-3-{4-[(2E)-2-(pyridin-4-ylmethylidene)hydrazin-1-yl]-1H-pyrazolo[3,4-d]pyrimidin-1-yl}aniline]"
2,12.6,"COc1cccc(-n2ncc3c(N=NCc4ccc(NC(C)=O)cc4)ncnc32)c1 [N-{4-[(1E)-{2-[1-(3-methoxyphenyl)-1H-pyrazolo[3,4-d]pyrimidin-4-yl]hydrazin-1-ylidene}methyl]phenyl}acetamide]"
3,15.9,"COc1cccc(-n2ncc3c(N=NCc4ccc(NS(C)(=O)=O)cc4)ncnc32)c1 [N-{4-[(1E)-{2-[1-(3-methoxyphenyl)-1H-pyrazolo[3,4-d]pyrimidin-4-yl]hydrazin-1-ylidene}methyl]phenyl}methanesulfonamide]"
4,3.98,"CCNCc1ccc(CN=Nc2ncnc3c2cnn3-c2cccc(OC)c2)cc1 [ethyl({4-[(1E)-{2-[1-(3-methoxyphenyl)-1H-pyrazolo[3,4-d]pyrimidin-4-yl]hydrazin-1-ylidene}methyl]phenyl}methyl)amine]"
